Experimental data published in US20200163984A1, “USE OF ISOVALERYL SPIRAMYCIN I, II AND/OR III IN MANUFACTURING MEDICAMENT FOR TREATING AND/OR PREVENTING TUMOR, AND MEDICAMENT” (SHENYANG FUYANG PHARMACEUTICAL TECHNOLOGY CO., LTD., priority 2017, published 2020).

Tests used:
[1] = tested on: transplanted tumor of human renal cell adenocarcinoma cell 769-P; assay: 769-P transplanted tumor in nude mice; conditions: for Tumor Volume (mm3) (d 1): d1
Description: (§1) Then cell concentration was adjusted to 1×10^7/ml with matrigel, then each nude mouse was inoculated subcutaneously with 0.2 ml of cells at its right armpit and recorded as the first day of inoculation. When the tumor grows to be greater than or equal to 100 mm^3, the mice were randomly divided into 11 groups with 6 mice in each group: a model group, a cyclophosphamide group, isovaleryl spiramycin I groups with doses of 25, 50 and 100 mg/kg, isovaleryl spiramycin II groups with doses of 25, 50 and 100 mg/kg, and isovaleryl spiramycin III groups with doses of 25, 50 and 100 mg/kg. Each group was continuously administered intragastrically for 30 days with a dose of 20 ml/kg. The mice were sacrificed the next day after drug withdrawal and the indicators were tested. The long diameter and short diameter of the tumor, and the weight of each mouse were recorded every 3 days from drug administration to nude mouse sacrifice.
(§2) The body weight of the nude mice and the long diameter (a) and short diameter (b) of the transplanted tumor were measured every 3 days, and the tumor volume (v), relative tumor volume (RTV) and relative tumor proliferation rate (T/C) are calculated respectively according to the following formulas, wherein V=a×b^2/2; RTV=V/V0 (V0 is the tumor volume before administration, V is the tumor volume before sacrifice), and T/C (%)=treatment group RTV/model control group RTV×100%.
(§3) Each mouse was weighed and sacrificed. After the tumor was completely stripped off from the body of the mouse, the non-tumor tissues such as blood stains and fat were removed to weigh the tumor and calculate the tumor growth inhibition rate. The average tumor weight of each group of mice is used as an indicator of efficacy. Tumor growth inhibition rate (%)=(1−the average tumor weight of the treatment group/the average tumor weight of the model group)×100%.

[2] = tested on: transplanted tumor of human cervical cancer cell HeLa; assay: HeLa transplanted tumor in nude mice; conditions: for Tumor Volume (mm3) (d 1): d1
Description: as §1, with “HeLa cells in a logarithmic growth phase were taken and subjected to a trypan blue exclusion experiment showing that the cell viability was more than 95%, then the cells were subjected to trypsinization, centrifugation, and supernatant removal. Then cell” for “Then cell”, “and the body weight of” for “and the weight of”
as §2, §3

[3] = tested on: transplanted tumor of mouse H22 liver cancer; assay: Transplanted tumor of mouse H22 liver cancer; conditions: for Tumor Volume (mm3) (d30): d 30; for Body Weight (g) (d1) / Body Weight (g) (d 7): mouse, in vivo
Description: The H22 cell strains cryopreserved in liquid nitrogen were resuscitated in Kunming mice. After 3 generations, the ascites of Kunming mice were taken and placed in a 50 ml centrifuge tube in which 10 ml of 0.9% normal saline was added, and then centrifuging was performed at 1000 rpm for 5 min at room temperature, and the obtained supernatant was removed. Then 10 ml of 0.9% normal saline was added to the tube to blow and mix well, and then the mixture was diluted to 5×10^6 live cells/ml with normal saline after counting. The tube was stored in ice water, and 75% ethanol was used to disinfect the skin under the right armpits of the mice. Each Kunming mouse was soon inoculated subcutaneously with 0.2 ml of the cells at the armpit of the right forelimb.
In the H22 liver cancer model, the mice inoculated with the tumor were randomly divided into groups with 10 mice in each group on the next day of inoculation. The groups included: a model control group, a positive drug cyclophosphamide control group (CTX, 26 mg/kg), isovaleryl spiramycin I groups with doses of 13, 26 and 52 mg/kg; isovaleryl spiramycin II groups with doses of 13, 26 and 52 mg/kg; isovaleryl spiramycin III groups with doses of 13, 26 and 52 mg/kg. Each group was continuously administered intragastrically for 7 days with a dose of 20 ml/kg.
The tumor-bearing mice were weighed and sacrificed the next day after the last administration. The subcutaneous tumors were dissected and weighed. The average tumor weight of each group is calculated, and the tumor inhibition rate is calculated.
Tumor inhibition rate=(1−T/C)×100%
T: average tumor weight of the drug-administered group; C: average tumor weight of the blank control group.

[4] = 769-P, high dose (100 mg/kg in method) i.g. 30 days
[5] = 769-P, low dose (25 mg/kg in method) i.g. 30 days
[6] = 769-P, medium dose (50 mg/kg in method) i.g. 30 days
[7] = HeLa, high dose (100 mg/kg in method) i.g. 30 days
[8] = HeLa, low dose (25 mg/kg in method) i.g. 30 days
[9] = HeLa, medium dose (50 mg/kg in method) i.g. 30 days

mouse weight compared with the model group ([1]; mouse, in vivo): no significant changes
mouse weight compared with the model group ([2]; mouse, in vivo): no significant changes
SMILES: COC1C(OC(C)=O)CC(=O)OC(C)CC=CC=CC(OC2CCC(N(C)C)C(C)O2)C(C)CC(CC=O)C1OC1OC(C)C(OC2CC(C)(O)C(OC(=O)CC(C)C)C(C)O2)C(N(C)C)C1O (centres unmarked) [Isovaleryl spiramycin II, isovaleryl spiramycin II]
Inhibition Rate (%) ([1]; 769-P nude mice, 25 mg/kg): 38.29%
Relative Tumor Proliferation Rate (T/C) ([1]; 769-P nude mice, 25 mg/kg): 68.22%
Relative Tumor Volume (RTV) ([1]; 769-P nude mice, 25 mg/kg): 12.59 ± 5.32
Tumor Weight ([1]; 769-P nude mice, 25 mg/kg): 1.27 ± 0.42 g
Tumor Volume (mm3) (d 1) ([1]; 769-P nude mice, 25 mg/kg): 162.50 ± 59.24 mm3
Tumor Volume (mm3) (d30) ([1]; 769-P nude mice, 25 mg/kg): 2045.85 ± 301.35 mm3
Inhibition Rate (%) ([1]; 769-P nude mice, 50 mg/kg): 47.61%
Relative Tumor Proliferation Rate (T/C) ([1]; 769-P nude mice, 50 mg/kg): 42.64%
Relative Tumor Volume (RTV) ([1]; 769-P nude mice, 50 mg/kg): 7.87 ± 2.29
Tumor Weight ([1]; 769-P nude mice, 50 mg/kg): 1.3 ± 0.23 g
Tumor Volume (mm3) (d 1) ([1]; 769-P nude mice, 50 mg/kg): 193.10 ± 35.41 mm3
Tumor Volume (mm3) (d30) ([1]; 769-P nude mice, 50 mg/kg): 1519.68 ± 239.38 mm3
Inhibition Rate (%) ([1]; 769-P nude mice, 100 mg/kg): 61.79%
Relative Tumor Proliferation Rate (T/C) ([1]; 769-P nude mice, 100 mg/kg): 34.76%
Relative Tumor Volume (RTV) ([1]; 769-P nude mice, 100 mg/kg): 6.42 ± 0.99
Tumor Weight ([1]; 769-P nude mice, 100 mg/kg): 0.79 ± 0.06 g
Tumor Volume (mm3) (d 1) ([1]; 769-P nude mice, 100 mg/kg): 109.14 ± 10.13 mm3
Tumor Volume (mm3) (d30) ([1]; 769-P nude mice, 100 mg/kg): 700.14 ± 100.08 mm3
Relative Tumor Proliferation Rate (T/C) [1, 4]: 34.76%
tumor growth inhibition rate [1, 4]: 61.79%
Relative Tumor Proliferation Rate (T/C) [1, 5]: 68.22%
tumor growth inhibition rate [1, 5]: 38.29%
tumor volume and relative tumor volume compared with the model group ([1]; 769-P, low, medium and high doses, P<0.05): significantly lower
Relative Tumor Proliferation Rate (T/C) [1, 6]: 42.64%
tumor growth inhibition rate [1, 6]: 47.61%
Body Weight (g) (d1) ([1]; mouse, in vivo, 25 mg/kg): 22.17 ± 1.47 g
Body Weight (g) (d30) ([1]; mouse, in vivo, 25 mg/kg): 22.05 ± 0.71 g
Body Weight (g) (d1) ([1]; mouse, in vivo, 50 mg/kg): 22.07 ± 1.52 g
Body Weight (g) (d30) ([1]; mouse, in vivo, 50 mg/kg): 22.42 ± 0.54 g
Body Weight (g) (d1) ([1]; mouse, in vivo, 100 mg/kg): 21.96 ± 1.19 g
Body Weight (g) (d30) ([1]; mouse, in vivo, 100 mg/kg): 22.33 ± 0.41 g
Inhibition Rate (%) ([2]; HeLa nude mice, 12.5 mg/kg): 30.67%
Relative Tumor Proliferation Rate (T/C) ([2]; HeLa nude mice, 12.5 mg/kg): 68.55%
Relative Tumor Volume (RTV) ([2]; HeLa nude mice, 12.5 mg/kg): 11.36 ± 2.90
Tumor Weight ([2]; HeLa nude mice, 12.5 mg/kg): 1.34 ± 0.60 g
Tumor Volume (mm3) (d 1) ([2]; HeLa nude mice, 12.5 mg/kg): 115.41 ± 23.27 mm3
Tumor Volume (mm3) (d30) ([2]; HeLa nude mice, 12.5 mg/kg): 1301.28 ± 391.77 mm3
Inhibition Rate (%) ([2]; HeLa nude mice, 25 mg/kg): 42.90%
Relative Tumor Proliferation Rate (T/C) ([2]; HeLa nude mice, 25 mg/kg): 56.07%
Relative Tumor Volume (RTV) ([2]; HeLa nude mice, 25 mg/kg): 9.30 ± 1.74
Tumor Weight ([2]; HeLa nude mice, 25 mg/kg): 1.10 ± 0.62 g
Tumor Volume (mm3) (d 1) ([2]; HeLa nude mice, 25 mg/kg): 125.04 ± 20.71 mm3
Tumor Volume (mm3) (d30) ([2]; HeLa nude mice, 25 mg/kg): 1184.42 ± 369.49 mm3
Inhibition Rate (%) ([2]; HeLa nude mice, 50 mg/kg): 43.30%
Relative Tumor Proliferation Rate (T/C) ([2]; HeLa nude mice, 50 mg/kg): 45.96%
Relative Tumor Volume (RTV) ([2]; HeLa nude mice, 50 mg/kg): 7.62 ± 0.85
Tumor Weight ([2]; HeLa nude mice, 50 mg/kg): 1.10 ± 0.61 g
Tumor Volume (mm3) (d 1) ([2]; HeLa nude mice, 50 mg/kg): 111.84 ± 4.83 mm3
Tumor Volume (mm3) (d30) ([2]; HeLa nude mice, 50 mg/kg): 851.58 ± 93.66 mm3
Relative Tumor Proliferation Rate (T/C) [2, 7]: 43.30%
tumor growth inhibition rate [2, 7]: 43.30%
Relative Tumor Proliferation Rate (T/C) [2, 8]: 30.67%
tumor growth inhibition rate [2, 8]: 30.67%
tumor volume and relative tumor volume compared with the model group ([2]; HeLa, low, medium and high doses, P<0.05): significantly lower
Relative Tumor Proliferation Rate (T/C) [2, 9]: 42.90%
tumor growth inhibition rate [2, 9]: 42.90%
Body Weight (g) (d1) ([2]; mouse, in vivo, 12.5 mg/kg): 20.92 ± 0.46 g
Body Weight (g) (d30) ([2]; mouse, in vivo, 12.5 mg/kg): 21.16 ± 0.51 g
Body Weight (g) (d1) ([2]; mouse, in vivo, 25 mg/kg): 20.87 ± 0.34 g
Body Weight (g) (d30) ([2]; mouse, in vivo, 25 mg/kg): 21.25 ± 0.55 g
Body Weight (g) (d1) ([2]; mouse, in vivo, 50 mg/kg): 20.77 ± 0.43 g
Body Weight (g) (d30) ([2]; mouse, in vivo, 50 mg/kg): 21.09 ± 0.36 g
growth of H22 liver cancer in mice ([3]; 13, 26 and 52 mg/kg i.g. 7 days): significantly inhibit
Relative Tumor Proliferation Rate (T/C) ([3]; dose 12.5 mg/kg): 78.85
Relative Tumor Volume (RTV) ([3]; dose 12.5 mg/kg): 7.83 ± 1.50
Tumor Volume (mm3) (d 1) ([3]; dose 12.5 mg/kg): 120.80 ± 18.48 mm3
Tumor Volume (mm3) (d30) ([3]; dose 12.5 mg/kg): 931.38 ± 141.51 mm3
Inhibition Rate (%) ([3]; dose 13 mg/kg): 19.74%
Tumor ([3]; dose 13 mg/kg): 1.22 ± 0.31 g
Relative Tumor Proliferation Rate (T/C) ([3]; dose 25 mg/kg): 66.04
Relative Tumor Volume (RTV) ([3]; dose 25 mg/kg): 6.56 ± 2.19
Tumor Volume (mm3) (d 1) ([3]; dose 25 mg/kg): 118.02 ± 10.35 mm3
Tumor Volume (mm3) (d30) ([3]; dose 25 mg/kg): 779.30 ± 292.34 mm3
Inhibition Rate (%) ([3]; dose 26 mg/kg): 30.26%
Tumor ([3]; dose 26 mg/kg): 1.06 ± 0.33 g
Relative Tumor Proliferation Rate (T/C) ([3]; dose 50 mg/kg): 56.20
Relative Tumor Volume (RTV) ([3]; dose 50 mg/kg): 5.58 ± 0.95
Tumor Volume (mm3) (d 1) ([3]; dose 50 mg/kg): 118.18 ± 14.68 mm3
Tumor Volume (mm3) (d30) ([3]; dose 50 mg/kg): 659.02 ± 138.35 mm3
Inhibition Rate (%) ([3]; dose 52 mg/kg): 45.39%
Tumor ([3]; dose 52 mg/kg): 0.83 ± 0.46 g
Body Weight (g) (d1) ([3]; 13 mg/kg): 24.22 ± 2.15 g
Body Weight (g) (d 7) ([3]; 13 mg/kg): 27.27 ± 2.20 g
Body Weight (g) (d1) ([3]; 26 mg/kg): 24.72 ± 1.69 g
Body Weight (g) (d 7) ([3]; 26 mg/kg): 27.35 ± 0.80 g
Body Weight (g) (d1) ([3]; 52 mg/kg): 23.45 ± 1.69 g
Body Weight (g) (d 7) ([3]; 52 mg/kg): 27.02 ± 0.90 g
